The results in this text go back to US9585840B1, “Redox active cerium oxide nanoparticles and associated methods” (University of Central Florida Research Foundation, Inc., priority 2009, dated 2017).

The test system of series [1] is SCL-1 cells. Briefly: Intracellular ROS, DCF fluorescence, tumor cells. The format is cell-based, human. As to conditions: 250 μM H2O2, technical control; data not shown. The protocol:
Generation of ROS was determined using 2′,7′-Dichlorodihydrofluorescein diacetate (H2DCF-DA), a dye that diffuses across the lipid membranes into cells and is subsequently oxidized by intracellular ROS forming the highly fluorescent DCF. Subconfluent HDF and SCL-1 tumor cells were exposed to 50 μM or 150 μM CNP in serum-free DMEM in 24-well plates. Untreated subconfluent SCL-1 cells were used as negative controls. Medium was substituted after 24 h by 100 μM H2DCF-DA containing Hanks Balanced Salt Solution (HESS). DCF fluorescence was detected at an excitation wavelength of 485 nm and emission wavelength of 520 nm in 15 minutes intervals in a FLUOstar OPTIMA plate reader (BMG Labtech, Offenburg, Germany). Mean fluorescence intensities and standard error of mean were determined for each reading point by using the statistical software Prism 3.0 (GraphPad, San Diego, Calif., USA).

Series [2] deals with SCL-1 cells. Briefly: Oxidized (carbonylated) proteins, Oxyblot, tumor cells. The format is cell-based, human. As to conditions: 250 μM H2O2 for 1 h. The protocol: Dermal fibroblasts or tumor cells were grown to subconfluence on tissue culture dishes. After removal of serum-containing medium, HDF were cultured in CM^HDF and either mock-treated or pretreated for 40 h with 150 μM CeO2 nanoparticles prior to addition of 10 ng rTGFβ1/ml for additional 8 h. Tumor cells were mock-treated or treated with 150 μM CNP for 16 h. As positive control, the cells were treated with 250 μM H2O2 for 1 h. Thereafter, cells were lysed and carbonyl groups of oxidized proteins were detected with the OxyBlot™ Protein Oxidation Detection Kit, following the manufacturer's protocol. Briefly, the protein concentration was determined by using a modified Lowry method (Bio-Rad DC). The protein amounts of the samples were aligned. 5 μg of this cell lysate was incubated with 2,4-dinitrophenyl (DNP) hydrazine to form the DNP hydrazone derivatives. Labeled proteins were separated by SDS-PAGE and immunostained using rabbit anti-DNP antiserum (1:500) and goat anti-rabbit IgG conjugated to horseradish peroxidase (1:2000). Blots were developed by enhanced chemiluminescence.

For a further series, the system named is αSMA. Briefly: TGFβ1-mediated αSMA protein expression in human dermal fibroblasts, western blot. As to conditions: HDF; for TGFβ1-triggered upregulation of αSMA protein levels: NAC 5.0 mM 4 h or Na2SeO3 0.5 μM 24 h pretreatment, rTGFβ1 5 ng/ml, 48 h after growth factor. Type of series: cell-based. The protocol: Human dermal fibroblasts (HDF) were established by outgrowth from foreskin biopsies of healthy human donors with an age of 3-6 years. Cells were used in passages 2-12, corresponding to cumulative population doubling levels of 3-27 [15]. Dermal fibroblasts and the squamous carcinoma cell line SCL-1, originally derived from the face of a person (generously provided by Prof. Dr Norbert Fusenig, DKFZ Heidelberg, Germany), were cultured as described. Myofibroblasts (MF) were generated by treatment of HDFs with different concentrations of recombinant TGFβ1 (5 ng/ml) for 48 h in HDF conditioned medium (CMHDF).
SDS-PAGE was performed according to the standard protocols published elsewhere with minor modifications. Briefly, cells were lysed after incubation with rTGFβ1 in 1% SDS with 1:1000 protease inhibitor cocktail (Sigma; Taufkirchen, Germany). After sonication, the protein concentration was determined by using a modified Lowry method (Bio-Rad DC). 2×SDS-PAGE sample buffer (1.5 M Tris-HCl pH 6.8, 6 ml 20% SDS, 30 ml glycerol, 15 ml β-mercaptoethanol and 1.8 mg bromophenol blue was added, and after heating, the samples (10 μg total protein/lane) were applied to 10% (w/v) SDS-polyacrylamide gels. After electroblotting, immunodetection was carried out (1:1000 dilution of primary antibodies (mouse monoclonal anti-SMA and tubulin), 1:20000 dilution of anti-mouse antibody conjugated to HRP). Antigen-antibody complexes were visualized by an enhanced chemiluminescence system. Alpha-tubulin was used as internal control for equal loading.

Series [3] relates to HIF-1. Briefly: HIF-1 protein expression, western blot, tumor cells. As to conditions: SCL-1; 100 μM cobalt chloride; 4 h. Type of series: cell-based, human.
The subject of series [4] is HIF-1. Nature of the series: HIF-1 protein expression, western blot, fibroblasts. Type of series: cell-based, human. As to conditions: HDF; 100 μM cobalt chloride; 4 h.
For the next series, the system named is αSMA mRNA. Briefly: αSMA mRNA, quantitative real-time RT-PCR in human dermal fibroblasts. The format is cell-based. As to conditions: HDF; 24 h after treatment; normalised to HPRT1. The protocol: Total RNA was isolated and transcribed into cDNA as described. Expression of mRNA was analyzed by real-time RT-PCR using a LightCycler system (Roche; Mannheim, Germany) as described. Real-time RT-PCR was performed with 40 ng cDNA in glass capillaries containing LightCycler FastStart DNA Master SYBR Green I Reaction Mix (Roche), 2 mM MgCl2 and 1 μM of primers. Quantitation of the PCR amplicons was performed using the LightCycler Software. Hypoxanthine phosphoribosyltransferase (HPRT1) was used as internal normalization control.

The conditions of series [5]: mouse, in vivo, iv, 0.5 mg/kg.
Method: Eight-week-old, CD-1 mice were divided into two groups. Controls were given weekly doses of 100 μl sterile PBS only by intravenous (IV) administration. The nanoceria group received five doses (one dose a week) of 0.5 mg/kg of nanoceria suspended in 100 μl of sterile saline (IV). Both groups were sacrified on the sixth week. Skin tissue from the back of each animal was excised and hair removed. The tissue was patted dry, weighed and placed in 70% nitric acid overnight to start the digestion process. Samples were then microwave digested. The temperature was ramped to 200° C. over 20 min and held there for another 20 min. Samples were then boiled down to less than 1 ml each and reconstituted in water to an exact volume of 10 ml. Cerium levels were assessed using inductively coupled plasma mass spectroscopy (ICP-MS).

In the case of `OO` [H2O2, Hydrogen peroxide], in the series on SCL-1 cells [1], the “intracellular ROS level” value was “further increased”. Further, in the series on SCL-1 cells [2], the “oxidized proteins, positive control” value was “increase in oxidized proteins”.

On to `CC(=O)N[C@@H](CS)C(=O)O` [NAC, N-acetyl-L-cysteine], for which, in the series with αSMA, the “TGFβ1-triggered upregulation of αSMA protein levels” value is reported as “completely prevented”. With `[Cl][Co][Cl]` [cobalt chloride], the “HIF-1 protein levels compared to mock-treated cells” value with HIF-1 [3] is on record as “significant increase”. Besides, the HIF-1 protein expression result in the series on HIF-1 [4] was “not affected”. Regarding `O=[Se]([O-])[O-].[Na+].[Na+]` [selenite, sodium selenite], the “TGFβ1-triggered upregulation of αSMA protein levels” value in the series with αSMA is “significantly lowered”. Turning to “TGFβ1: Recombinant human TGFβ1 from R&D Systems, stimulus for myofibroblast formation”, the “αSMA protein amount compared with mock-treated control cells” value in the series on αSMA (rTGFβ1 5 ng/ml for 8 to 48 h, starting at 16 h post treatment) was “significant time-dependent increase”. Besides, the “increase in αSMA steady-state mRNA levels compared to mock-treated controls” value in the series on αSMA mRNA was determined as 10 fold. Consider cerium oxide nanoparticles [CNP], for which the cell morphology result in the series on human dermal fibroblasts is “No change in morphology”. Moreover, the “increase in the amount of CeO2 per gram skin tissue vs mock-treated mice” value in series [5] is “up to 8 fold”.
